Patent US20190336610A1, “GLUCOSE-SENSITIVE PEPTIDE HORMONES” (GUBRA APS, priority 2016, published 2019)

Experiments:
[1] = In vitro glucose sensing at different glucose concentration (UPLC-MS, formation of linker-glucose); assay type: physicochemical; conditions: 0.42 mM linker, PBS pH 7.4, 37° C.
Experimental: The aim with the example is to evaluate the reaction rate of three different linkers at various glucose concentrations i.e. their ability to hydrolyse and react with glucose to form a linker glucose conjugate.
1.4 mg of linker 1 ((E)-N′-(3-(benzyloxy)propylidene)-4-methoxybenzohydrazide) was dissolved in 100 μL DMSO. 10 μL of the DMSO stock solution was added to 990 μL 1×PBS buffer pH 7.4, containing 1000 or 5000 equiv glucose, to give a final concentration of 0.42 mM of linker 1. The solutions were heated to 37° C. and analysed at different time points from 0 to 48 h by UPLC-MS (C18 column, acetonitrile/water/formic acid). The linker-glucose compound was analysed as percentage of the full conversion of the reaction.
1.3 mg and 1.4 mg of linker 14 ((E)-N′-(2-(benzyloxy)ethylidene)-4-methoxybenzohydrazide) and linker 15 ((E)-N′-(2-(benzyloxy)ethylidene)-2-hydroxy-4-methoxybenzohydrazide), respectively, was dissolved in 100 μL DMSO. 10 μL of each stock solution was added to 990 μL 1×PBS buffer pH 7.4 containing 1000, 5000 or 10,000 equiv glucose, to give a final linker concentration of 0.42 mM. The solutions were heated to 37° C. and analysed at different time points from 0 to 72 h by UPLC-MS (C18 column, acetonitrile/water/formic acid). The linker-glucose compounds were analysed as percentage of the full conversion of the reaction.

[2] = In vitro glucose sensing evaluation (LC-MS): reactivity of each linker towards glucose; assay type: physicochemical; conditions: phosphate buffer pH 7, 1000 equiv glucose, 37° C.
Experimental: The aim with this example is to evaluate the reactivity of each linker towards glucose.
1-1.5 mg of linker was dissolved in 100 μL DMSO. Immediately after solvation, 5 μL was added to 995 μL phosphate buffer pH 7 containing 1000 equiv glucose. The mixture was heated to 37° C. and analysed continuously by LC-MS

[3] = tested on: lean rats; test: In vivo scITT in lean rats; conditions: s.c., 5 U insulin-C18 or 0.5 U human insulin

## COc1ccc(C(=O)N/N=C/CCOCc2ccccc2)cc1 [Linker 1, (E)-N′-(3-(benzyloxy)propylidene)-4-methoxybenzohydrazide]
[1]; 1000 equiv glucose, 0 h
  % linker-glucose: 0%
[1]; 1000 equiv glucose, 1.5 h
  % linker-glucose: 3%
[1]; 1000 equiv glucose, 2 h
  % linker-glucose: 3%
[1]; 1000 equiv glucose, 3 h
  % linker-glucose: 5%
[1]; 1000 equiv glucose, 3.17 h
  % linker-glucose: 4%
[1]; 1000 equiv glucose, 3.5 h
  % linker-glucose: 4%
[1]; 1000 equiv glucose, 3.75 h
  % linker-glucose: 4%
[1]; 1000 equiv glucose, 4 h
  % linker-glucose: 5%
[1]; 1000 equiv glucose, 4.5 h
  % linker-glucose: 6%
[1]; 1000 equiv glucose, 4.75 h
  % linker-glucose: 6%
[1]; 1000 equiv glucose, 5 h
  % linker-glucose: 6%
[1]; 1000 equiv glucose, 5.5 h
  % linker-glucose: 6%
[1]; 1000 equiv glucose, 6 h
  % linker-glucose: 9%
[1]; 1000 equiv glucose, 7 h
  % linker-glucose: 9%
[1]; 1000 equiv glucose, 24 h
  % linker-glucose: 29%
[1]; 1000 equiv glucose, 48 h
  % linker-glucose: 70%
[1]; 5000 equiv glucose, 0 h
  % linker-glucose: 0%
[1]; 5000 equiv glucose, 0.75 h
  % linker-glucose: 3%
[1]; 5000 equiv glucose, 1 h
  % linker-glucose: 6%
[1]; 5000 equiv glucose, 1.25 h
  % linker-glucose: 7%
[1]; 5000 equiv glucose, 1.5 h
  % linker-glucose: 10%
[1]; 5000 equiv glucose, 1.75 h
  % linker-glucose: 10%
[1]; 5000 equiv glucose, 2 h
  % linker-glucose: 14%
[1]; 5000 equiv glucose, 2.5 h
  % linker-glucose: 18%
[1]; 5000 equiv glucose, 7 h
  % linker-glucose: 49%

## COc1ccc(C(=O)N/N=C/COCc2ccccc2)cc1 [Linker 14, (E)-N′-(2-(benzyloxy)ethylidene)-4-methoxybenzohydrazide]
[1]; 1000 equiv glucose, 0 h
  % linker-glucose: 0%
[1]; 1000 equiv glucose, 24 h
  % linker-glucose: 7%
[1]; 1000 equiv glucose, 54 h
  % linker-glucose: 11%
[1]; 1000 equiv glucose, 72 h
  % linker-glucose: 17%
[1]; 5000 equiv glucose, 0 h
  % linker-glucose: 0%
[1]; 5000 equiv glucose, 24 h
  % linker-glucose: 16%
[1]; 5000 equiv glucose, 54 h
  % linker-glucose: 30%
[1]; 5000 equiv glucose, 72 h
  % linker-glucose: 50%
[1]; 10,000 equiv glucose, 0 h
  % linker-glucose: 0%
[1]; 10,000 equiv glucose, 6 h
  % linker-glucose: 3%
[1]; 10,000 equiv glucose, 24 h
  % linker-glucose: 39%
[1]; 10,000 equiv glucose, 54 h
  % linker-glucose: 62%
[1]; 10,000 equiv glucose, 72 h
  % linker-glucose: 87%

## COc1ccc(C(=O)N/N=C/COCc2ccccc2)c(O)c1 [Linker 15, (E)-N′-(2-(benzyloxy)ethylidene)-2-hydroxy-4-methoxybenzohydrazide]
[2]
  Linker-glucose observed: ≤ 5 h
[1]; 1000 equiv glucose, 0 h
  % linker-glucose: 0%
[1]; 1000 equiv glucose, 2 h
  % linker-glucose: 1%
[1]; 1000 equiv glucose, 4 h
  % linker-glucose: 3%
[1]; 1000 equiv glucose, 6 h
  % linker-glucose: 5%
[1]; 1000 equiv glucose, 24 h
  % linker-glucose: 21%
[1]; 1000 equiv glucose, 48 h
  % linker-glucose: 35%
[1]; 5000 equiv glucose, 0 h
  % linker-glucose: 0%
[1]; 5000 equiv glucose, 1 h
  % linker-glucose: 2%
[1]; 5000 equiv glucose, 2 h
  % linker-glucose: 6%
[1]; 5000 equiv glucose, 4 h
  % linker-glucose: 12%
[1]; 5000 equiv glucose, 6 h
  % linker-glucose: 21%
[1]; 5000 equiv glucose, 24 h
  % linker-glucose: 68%
[1]; 5000 equiv glucose, 48 h
  % linker-glucose: 98%
[1]; 10,000 equiv glucose, 0 h
  % linker-glucose: 0%
[1]; 10,000 equiv glucose, 1 h
  % linker-glucose: 9%
[1]; 10,000 equiv glucose, 2 h
  % linker-glucose: 15%
[1]; 10,000 equiv glucose, 4 h
  % linker-glucose: 33%
[1]; 10,000 equiv glucose, 6 h
  % linker-glucose: 44%
[1]; 10,000 equiv glucose, 24 h
  % linker-glucose: 89%
[1]; 10,000 equiv glucose, 48 h
  % linker-glucose: 99%

## Human insulin: human insulin, the unmodified peptide hormone used as comparator
[3]; 0 min (before)
  Blood glucose % of vehicle (±SEM): 95 ± 3%
[3]; 60 min
  Blood glucose % of vehicle (±SEM): 64 ± 4%
[3]; 120 min
  Blood glucose % of vehicle (±SEM): 55 ± 6%
[3]; 180 min
  Blood glucose % of vehicle (±SEM): 66 ± 7%
[3]; 240 min
  Blood glucose % of vehicle (±SEM): 76 ± 4%
[3]; 300 min
  Blood glucose % of vehicle (±SEM): 76 ± 4%
